US8242124B2, “Diketopiperidine derivatives as HIV attachment inhibitors” (priority 2008, dated 2012)
Read-outs that look alike come from different tables or passages of the source.

Test system: HIV-1 single-round infectious reporter virus
Assay: Single-round infectious HIV-1 reporter virus (luciferase) infection assay in HeLa CD4 cells
Details: Human immunodeficiency virus 1, HeLa, 72 h
[1] = read-out: HIV_SC10PT (EC50, nM)
[2] = read-out: HIV_SC10PT (EC50, nM), group symbol

Description: 2. Compound was added in a 2 μl dimethylsulfoxide solution, so that the final assay concentration would be ≦10 μM.
3. 100 μl of single-round infectious reporter virus in Dulbecco's Modified Eagle Medium was then added to the plated cells and compound at an approximate multiplicity of infection (MOI) of 0.01, resulting in a final volume of 200 μl per well.
4. Virally-infected cells were incubated at 37 degrees Celsius, in a CO2 incubator, and harvested 72 h after infection.
5. Viral infection was monitored by measuring luciferase expression from viral DNA in the infected cells using a luciferase reporter gene assay kit, as described by the manufacturer (Roche Molecular Biochemicals, Indianapolis, Ind.). Infected cell supernatants were removed and 50 μl of lysis buffer was added per well. After 15 minutes, 50 μl of freshly-reconstituted luciferase assay reagent was added per well. Luciferase activity was then quantified by measuring luminescence using a Wallac MICROBETA® scintillation counter.
7. An EC50 provides a method for comparing the antiviral potency of the compounds of this disclosure. The effective concentration for fifty percent inhibition (EC50) was calculated with the Microsoft Excel Xlfit curve fitting software.

SMILES | EC50 [1] | EC50 [2]
COc1cnc(-n2cnc(C)n2)c2[nH]cc(C(=O)C(=O)N3CCc4c(cccc4-c4ccccc4)C3)c12 [Compound 1, 1-(4-methoxy-7-(3-methyl-1H-1,2,4-triazol-1-yl)-1H-pyrrolo[2,3-c]pyridin-3-yl)-2-(5-phenyl-3,4-dihydroisoquinolin-2(1H)-yl)ethane-1,2-dione] | 0.02 nM | 
COc1cnc(-n2cnc(C)n2)c2[nH]cc(C(=O)C(=O)N3CCc4c(cccc4-c4ccccn4)C3)c12 [Compound 2, 1-(4-methoxy-7-(3-methyl-1H-1,2,4-triazol-1-yl)-1H-pyrrolo[2,3-c]pyridin-3-yl)-2-(5-(pyridin-2-yl)-3,4-dihydroisoquinolin-2(1H)-yl)ethane-1,2-dione] |  | < 100 nM
CNC(=O)c1cc(-c2ncc(OC)c3c(C(=O)C(=O)N4CCc5c(cccc5-c5ccccn5)C4)c[nH]c23)n[nH]1 [Compound 4, 3-(4-methoxy-3-(2-oxo-2-(5-(pyridin-2-yl)-3,4-dihydroisoquinolin-2(1H)-yl)acetyl)-1H-pyrrolo[2,3-c]pyridin-7-yl)-N-methyl-1H-pyrazole-5-carboxamide] |  | < 100 nM
CNC(=O)c1ncc(OC)c2c(C(=O)C(=O)N3CCc4c(cccc4-c4ccccn4)C3)c[nH]c12 [Compound 5, 4-methoxy-N-methyl-3-(2-oxo-2-(5-(pyridin-2-yl)-3,4-dihydroisoquinolin-2(1H)-yl)acetyl)-1H-pyrrolo[2,3-c]pyridine-7-carboxamide] |  | < 100 nM
COc1cnc(C(=O)NCCO)c2[nH]cc(C(=O)C(=O)N3CCc4c(cccc4-c4ccccn4)C3)c12 [Compound 6, N-(2-hydroxyethyl)-4-methoxy-3-(2-oxo-2-(5-(pyridin-2-yl)-3,4-dihydroisoquinolin-2(1H)-yl)acetyl)-1H-pyrrolo[2,3-c]pyridine-7-carboxamide] |  | < 100 nM
COc1cnc(-c2cc(C(=O)O)[nH]n2)c2[nH]cc(C(=O)C(=O)N3CCc4c(cccc4-c4ccccn4)C3)c12 [Compound 7, 3-(4-methoxy-3-(2-oxo-2-(5-(pyridin-2-yl)-3,4-dihydroisoquinolin-2(1H)-yl)acetyl)-1H-pyrrolo[2,3-c]pyridin-7-yl)-1H-pyrazole-5-carboxylic acid] |  | < 100 nM
COc1cnc(-c2cc(C(=O)N(C)C)[nH]n2)c2[nH]cc(C(=O)C(=O)N3CCc4c(cccc4-c4ccccn4)C3)c12 [Compound 8, 3-(4-methoxy-3-(2-oxo-2-(5-(pyridin-2-yl)-3,4-dihydroisoquinolin-2(1H)-yl)acetyl)-1H-pyrrolo[2,3-c]pyridin-7-yl)-N,N-dimethyl-1H-pyrazole-5-carboxamide] |  | < 100 nM
COc1cnc(-c2cc(C(=O)NCCO)[nH]n2)c2[nH]cc(C(=O)C(=O)N3CCc4c(cccc4-c4ccccn4)C3)c12 [Compound 9, N-(2-hydroxyethyl)-3-(4-methoxy-3-(2-oxo-2-(5-(pyridin-2-yl)-3,4-dihydroisoquinolin-2(1H)-yl)acetyl)-1H-pyrrolo[2,3-c]pyridin-7-yl)-1H-pyrazole-5-carboxamide] | 0.17 nM | 
COc1cnc(-n2ccc(C(F)(F)F)n2)c2[nH]cc(C(=O)C(=O)N3CCc4c(cccc4-c4ccccn4)C3)c12 [Compound 10, 1-(4-methoxy-7-(3-(trifluoromethyl)-1H-pyrazol-1-yl)-1H-pyrrolo[2,3-c]pyridin-3-yl)-2-(5-(pyridin-2-yl)-3,4-dihydroisoquinolin-2(1H)-yl)ethane-1,2-dione] |  | < 100 nM
COc1cnc(-n2cncn2)c2[nH]cc(C(=O)C(=O)N3CCc4c(cccc4-c4ccccn4)C3)c12 [Compound 11, 1-(4-methoxy-7-(1H-1,2,4-triazol-1-yl)-1H-pyrrolo[2,3-c]pyridin-3-yl)-2-(5-(pyridin-2-yl)-3,4-dihydroisoquinolin-2(1H)-yl)ethane-1,2-dione] |  | < 100 nM
COc1cnc(-n2cnc(C(F)(F)F)n2)c2[nH]cc(C(=O)C(=O)N3CCc4c(cccc4-c4ccccn4)C3)c12 [Compound 12, 1-(4-methoxy-7-(3-(trifluoromethyl)-1H-1,2,4-triazol-1-yl)-1H-pyrrolo[2,3-c]pyridin-3-yl)-2-(5-(pyridin-2-yl)-3,4-dihydroisoquinolin-2(1H)-yl)ethane-1,2-dione] |  | < 100 nM
COCc1ncnn1-c1ncc(OC)c2c(C(=O)C(=O)N3CCc4c(cccc4-c4ccccn4)C3)c[nH]c12 [Compound 13, 1-(4-methoxy-7-(5-(methoxymethyl)-1H-1,2,4-triazol-1-yl)-1H-pyrrolo[2,3-c]pyridin-3-yl)-2-(5-(pyridin-2-yl)-3,4-dihydroisoquinolin-2(1H)-yl)ethane-1,2-dione] |  | < 100 nM
COCc1ncn(-c2ncc(OC)c3c(C(=O)C(=O)N4CCc5c(cccc5-c5ccccn5)C4)c[nH]c23)n1 [Compound 14, 1-(4-methoxy-7-(3-(methoxymethyl)-1H-1,2,4-triazol-1-yl)-1H-pyrrolo[2,3-c]pyridin-3-yl)-2-(5-(pyridin-2-yl)-3,4-dihydroisoquinolin-2(1H)-yl)ethane-1,2-dione] |  | < 100 nM
COc1cnc(-n2cnc(C(C)(F)F)n2)c2[nH]cc(C(=O)C(=O)N3CCc4c(cccc4-c4ccccn4)C3)c12 [Compound 17, 1-(7-(3-(1,1-difluoroethyl)-1H-1,2,4-triazol-1-yl)-4-methoxy-1H-pyrrolo[2,3-c]pyridin-3-yl)-2-(5-(pyridin-2-yl)-3,4-dihydroisoquinolin-2(1H)-yl)ethane-1,2-dione] |  | < 100 nM
COc1cnc(-n2ccnn2)c2[nH]cc(C(=O)C(=O)N3CCc4c(ncnc4-c4ccccn4)C3)c12 [Compound 19, 1-(4-methoxy-7-(1H-1,2,3-triazol-1-yl)-1H-pyrrolo[2,3-c]pyridin-3-yl)-2-(4-(pyridin-2-yl)-5,6-dihydropyrido[3,4-d]pyrimidin-7(8H)-yl)ethane-1,2-dione] |  | < 100 nM
COc1cnc(-c2cc(CO)[nH]n2)c2[nH]cc(C(=O)C(=O)N3CCc4c(ncnc4-c4ccccn4)C3)c12 [Compound 21, 1-(7-(5-(hydroxymethyl)-1H-pyrazol-3-yl)-4-methoxy-1H-pyrrolo[2,3-c]pyridin-3-yl)-2-(4-(pyridin-2-yl)-5,6-dihydropyrido[3,4-d]pyrimidin-7(8H)-yl)ethane-1,2-dione] |  | < 100 nM
COc1cnc(-c2cc(C(C)(C)O)[nH]n2)c2[nH]cc(C(=O)C(=O)N3CCc4c(ncnc4-c4ccccn4)C3)c12 [Compound 22, 1-(7-(5-(2-hydroxypropan-2-yl)-1H-pyrazol-3-yl)-4-methoxy-1H-pyrrolo[2,3-c]pyridin-3-yl)-2-(4-(pyridin-2-yl)-5,6-dihydropyrido[3,4-d]pyrimidin-7(8H)-yl)ethane-1,2-dione] |  | < 100 nM
COc1cnc(-n2cnc(CO)n2)c2[nH]cc(C(=O)C(=O)N3CCc4c(ncnc4-c4ccccn4)C3)c12 [Compound 23, 1-(7-(3-(hydroxymethyl)-1H-1,2,4-triazol-1-yl)-4-methoxy-1H-pyrrolo[2,3-c]pyridin-3-yl)-2-(4-(pyridin-2-yl)-5,6-dihydropyrido[3,4-d]pyrimidin-7(8H)-yl)ethane-1,2-dione] |  | < 100 nM
COc1cnc(-n2cnc(C(C)O)n2)c2[nH]cc(C(=O)C(=O)N3CCc4c(ncnc4-c4ccccn4)C3)c12 (stereo not shown) [Compound 24, 1-(7-(3-(1-hydroxyethyl)-1H-1,2,4-triazol-1-yl)-4-methoxy-1H-pyrrolo[2,3-c]pyridin-3-yl)-2-(4-(pyridin-2-yl)-5,6-dihydropyrido[3,4-d]pyrimidin-7(8H)-yl)ethane-1,2-dione] |  | < 100 nM
COc1cnc(-n2cnc(C)n2)c2[nH]cc(C(=O)C(=O)N3CCc4c(cc(C#N)c(=O)n4-c4ccccc4)C3)c12 [Compound 25, 6-(2-(4-methoxy-7-(3-methyl-1H-1,2,4-triazol-1-yl)-1H-pyrrolo[2,3-c]pyridin-3-yl)-2-oxoacetyl)-2-oxo-1-phenyl-1,2,5,6,7,8-hexahydro-1,6-naphthyridine-3-carbonitrile] |  | < 100 nM
COc1cnc(-n2cnc(C)n2)c2[nH]cc(C(=O)C(=O)N3CCc4c(ccnc4-c4ccccn4)C3)c12 [Compound 26, 1-(4-methoxy-7-(3-methyl-1H-1,2,4-triazol-1-yl)-1H-pyrrolo[2,3-c]pyridin-3-yl)-2-(5-(pyridin-2-yl)-3,4-dihydro-2,6-naphthyridin-2(1H)-yl)ethane-1,2-dione] |  | < 100 nM
COc1cnc(-n2cnc(C)n2)c2[nH]cc(C(=O)C(=O)N3CCc4c(ccnc4-c4ccccc4)C3)c12 [Compound 27, 1-(4-methoxy-7-(3-methyl-1H-1,2,4-triazol-1-yl)-1H-pyrrolo[2,3-c]pyridin-3-yl)-2-(5-phenyl-3,4-dihydro-2,6-naphthyridin-2(1H)-yl)ethane-1,2-dione] |  | < 100 nM
COc1cnc(-n2cnc(C)n2)c2[nH]cc(C(=O)C(=O)N3CCc4c(-c5ccccn5)cccc4C3O)c12 (stereo not shown) [Compound 28, 1-(1-hydroxy-5-(pyridin-2-yl)-3,4-dihydroisoquinolin-2(1H)-yl)-2-(4-methoxy-7-(3-methyl-1H-1,2,4-triazol-1-yl)-1H-pyrrolo[2,3-c]pyridin-3-yl)ethane-1,2-dione] |  | < 100 nM
COc1cnc(-c2cc(CO)[nH]n2)c2[nH]cc(C(=O)C(=O)N3CCc4c(cccc4-c4ccccn4)C3)c12 [Compound 29, 1-(7-(5-(hydroxymethyl)-1H-pyrazol-3-yl)-4-methoxy-1H-pyrrolo[2,3-c]pyridin-3-yl)-2-(5-(pyridin-2-yl)-3,4-dihydroisoquinolin-2(1H)-yl)ethane-1,2-dione] |  | < 100 nM
COc1cnc(Cl)c2[nH]cc(C(=O)C(=O)N3CCc4c(cccc4-c4ccccn4)C3)c12 [Compound 30, 1-(7-chloro-4-methoxy-1H-pyrrolo[2,3-c]pyridin-3-yl)-2-(5-(pyridin-2-yl)-3,4-dihydroisoquinolin-2(1H)-yl)ethane-1,2-dione] | 171 nM | 
